Laboratory results published in the NIST ThermoML archive (doi:10.1021/je900703f).

Settings: Liquid

FC(F)=C(F)C(F)(F)F [hexafluoropropene]
Settings | vapor or sublimation pressure [kPa]
263.17 K | 224.5
273.16 K | 324.4
293.12 K | 641
313.11 K | 1099.4
333.11 K | 1788.2
353.14 K | 2778.2
